Key:
AgOrco = target: T1, AgOrco (Anopheles gambiae, UniProt Q7QCC7); experiment: Ca++ imaging concentration-response in HEK cells; assay type: cell-based
T1 construct: gene Orco; Orco homomer, stoichiometry unknown
T1 sequence (Q7QCC7 1-478): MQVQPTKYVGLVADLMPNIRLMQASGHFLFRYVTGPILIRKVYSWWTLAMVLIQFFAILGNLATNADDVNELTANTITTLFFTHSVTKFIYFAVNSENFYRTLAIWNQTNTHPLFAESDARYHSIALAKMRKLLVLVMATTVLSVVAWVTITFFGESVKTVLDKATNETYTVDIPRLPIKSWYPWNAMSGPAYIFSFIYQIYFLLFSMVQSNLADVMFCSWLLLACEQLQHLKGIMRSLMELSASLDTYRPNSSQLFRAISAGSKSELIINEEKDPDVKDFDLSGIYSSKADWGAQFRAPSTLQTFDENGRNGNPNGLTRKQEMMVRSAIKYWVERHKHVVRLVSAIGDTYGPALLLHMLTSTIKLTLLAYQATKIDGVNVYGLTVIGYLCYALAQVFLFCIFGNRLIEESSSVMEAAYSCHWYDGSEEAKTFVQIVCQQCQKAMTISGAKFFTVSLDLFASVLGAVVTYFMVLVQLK

AgOrco + AgOr65 = tested on: T2, AgOrco + AgOr65; experiment: Ca++ imaging concentration-response in HEK cells; assay type: cell-based, Anopheles gambiae; settings: Orco agonist; AgOrco homomers may coexist
T2 construct: gene Orco; heteromer of unknown stoichiometry; VUAA1 acts on Orco, odorant on Or65, ruthenium red at the pore

AgOrco + AgOr8 = target: T3, AgOrco + AgOr8 (Anopheles gambiae, UniProt Q7PUT5+Q7QCC7); experiment: Ca++ imaging concentration-response in HEK cells; assay type: cell-based
T3 construct: gene Orco; heteromer of unknown stoichiometry; VUAA1 acts on Orco, odorant on Or8, ruthenium red at the pore
T3 sequence (Q7QCC7 1-478): T1 sequence (Q7QCC7 1-478)
T3 sequence (Q7PUT5 1-399): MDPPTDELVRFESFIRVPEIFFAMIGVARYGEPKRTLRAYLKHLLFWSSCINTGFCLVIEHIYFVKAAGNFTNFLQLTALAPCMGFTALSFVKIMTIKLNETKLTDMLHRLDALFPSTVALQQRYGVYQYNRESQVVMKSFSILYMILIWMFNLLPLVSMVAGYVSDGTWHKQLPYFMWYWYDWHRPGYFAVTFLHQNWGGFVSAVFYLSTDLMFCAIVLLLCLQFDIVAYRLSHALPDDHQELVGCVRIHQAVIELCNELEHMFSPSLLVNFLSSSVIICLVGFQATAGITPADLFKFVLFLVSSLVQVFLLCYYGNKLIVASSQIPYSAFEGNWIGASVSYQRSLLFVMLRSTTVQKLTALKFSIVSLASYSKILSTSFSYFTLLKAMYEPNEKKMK

AgOrco + AgOr10 [1] = target: T4, AgOrco + AgOr10 (Anopheles gambiae, UniProt B5U0U7+Q7QCC7); experiment: Ca++ imaging concentration-response in HEK cells; assay type: cell-based
T4 construct: gene Orco; heteromer of unknown stoichiometry; VUAA1 acts on Orco, odorant on Or10, ruthenium red at the pore
T4 sequence (Q7QCC7 1-478): T1 sequence (Q7QCC7 1-478)
T4 sequence (B5U0U7 1-375): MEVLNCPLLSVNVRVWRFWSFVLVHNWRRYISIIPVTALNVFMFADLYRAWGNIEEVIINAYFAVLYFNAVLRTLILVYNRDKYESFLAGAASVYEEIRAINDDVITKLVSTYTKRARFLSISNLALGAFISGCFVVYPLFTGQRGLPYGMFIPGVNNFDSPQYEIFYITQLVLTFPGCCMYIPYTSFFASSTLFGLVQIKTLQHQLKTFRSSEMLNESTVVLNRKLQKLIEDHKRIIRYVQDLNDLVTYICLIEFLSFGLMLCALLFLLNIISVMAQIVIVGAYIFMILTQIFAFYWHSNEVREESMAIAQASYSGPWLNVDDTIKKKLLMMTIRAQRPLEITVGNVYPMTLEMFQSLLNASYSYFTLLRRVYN

AgOrco + AgOr28 = tested on: T5, AgOrco + AgOr28; experiment: Ca++ imaging concentration-response in HEK cells; assay type: cell-based, Anopheles gambiae; settings: Orco agonist; AgOrco homomers may coexist
T5 construct: gene Orco; heteromer of unknown stoichiometry; VUAA1 acts on Orco, odorant on Or28, ruthenium red at the pore

AgOrco + AgOr10 [2] = target: T4, AgOrco + AgOr10; experiment: whole-cell patch clamp, block of agonist-induced current; assay type: cell-based; settings: 100 µM benzaldehyde as agonist; -60 mV; pH 7.35; 20–22°C; pore blocker, noncompetitive with VUAA1

Row | Structure (SMILES) | EC50 (AgOrco) [µM] | EC50 (AgOrco + AgOr65) [logM] | EC50 (AgOrco + AgOr8) [µM] | EC50 (AgOrco + AgOr10 [1]) [µM] | EC50 (AgOrco + AgOr28) [logM] | % current reduction at 100 μM (AgOrco + AgOr10 [2]) [%]
1 | CCc1ccc(NC(=O)CSc2nnc(-c3cccnc3)n2CC)cc1 [VUAA1, N-(4-ethylphenyl)-2-((4-ethyl-5-(3-pyridinyl)-4H-1,2,4-triazol-3-yl)thio)acetamide] | 49 | −4.42±0.02 | 13.2 | 12.3 | −4.47±0.02 | 
2 | N.N.N.N.N.N.N.N.N.N.N.N.N.N.[Cl-].[Cl-].[Cl-].[Cl-].[Cl-].[Cl-].[O-2].[O-2].[Ru+3].[Ru+3].[Ru+4] [ruthenium red] |  |  |  |  |  | 78.5±1.4

— paper PMC3235152, “Heteromeric Anopheline Odorant Receptors Exhibit Distinct Channel Properties” (PLoS ONE, 2011)
